Laboratory results as given in PubChem BioAssay AID330 (DTP/NCI, 2004).
Where “and” joins values, the source holds several entries; their conditions need not be identical. Equal entries are not always repeated. Inconclusive results and toxic doses are left out. How the source made its calls: active means survival T/C of 150% or more; inactive means T/C below 125% in these data.

Tested on: P388 leukemia ip, CD2F1 mice, survival T/C
Assay: NCI In Vivo Anticancer Drug Screen. Data for tumor model P388 Leukemia (intraperitoneal) in CD2F1 (CDF1) mice
Conditions: endpoint: median survival time, higher = longer survival
Outline: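 Mice carrying the transplanted tumor received test compound or vehicle. Survival was recorded in each group, and the value is the treated-group measurement divided by that of the vehicle-treated control group.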

[1] = dose: 60.0 mg/kg/injection, schedule: Q01DX005 (ip), vehicle: Klucel (hydroxypropylcellulose) (HPC)
[2] = dose: 120.0 mg/kg/injection, schedule: Q01DX005 (ip), vehicle: Klucel (hydroxypropylcellulose) (HPC)
[3] = dose: 50.0 mg/kg/injection, schedule: Q01DX009 (ip), vehicle: Klucel (hydroxypropylcellulose) (HPC)
[4] = dose: 50.0 mg/kg/injection, schedule: Q01DX005 (ip), vehicle: saline with Tween-80
[5] = dose: 100.0 mg/kg/injection, schedule: Q01DX005 (ip), vehicle: saline with Tween-80
[6] = dose: 200.0 mg/kg/injection, schedule: Q01DX005 (ip), vehicle: saline with Tween-80
[7] = dose: 100.0 mg/kg/injection, schedule: Q01DX001 (ip), vehicle: saline with Tween-80
[8] = dose: 200.0 mg/kg/injection, schedule: Q01DX001 (ip), vehicle: saline with Tween-80
[9] = dose: 400.0 mg/kg/injection, schedule: Q01DX001 (ip), vehicle: saline with Tween-80
[10] = dose: 50.0 mg/kg/injection, schedule: Q01DX005 (ip), vehicle: Klucel (hydroxypropylcellulose) (HPC)
[11] = dose: 100.0 mg/kg/injection, schedule: Q01DX005 (ip), vehicle: Klucel (hydroxypropylcellulose) (HPC)
[12] = dose: 200.0 mg/kg/injection, schedule: Q01DX005 (ip), vehicle: Klucel (hydroxypropylcellulose) (HPC)
[13] = dose: 50.0 mg/kg/injection, schedule: Q01DX009 (ip), vehicle: saline
[14] = dose: 100.0 mg/kg/injection, schedule: Q01DX009 (ip), vehicle: saline
[15] = dose: 200.0 mg/kg/injection, schedule: Q01DX009 (ip), vehicle: saline

Measured: T/C

CC(=O)OCCCn1nc(COC(N)=O)c2c1CC(C)CC2=O (configuration not stated)
inactive: [1] 101 % of control | [2] 99 % of control | dose: 240.0 mg/kg/injection, schedule: Q01DX005 (ip), vehicle: Klucel (hydroxypropylcellulose) (HPC) 100 % of control

CC(C)CCC[C@@H](C)[C@H]1CC[C@H]2[C@@H]3CCC(=O)[C@](C)(CCC(=O)O)[C@H]3CC[C@]12C
inactive: dose: 6.25 mg/kg/injection, schedule: Q01DX009 (ip), vehicle: Klucel (hydroxypropylcellulose) (HPC) 96 % of control | dose: 12.5 mg/kg/injection, schedule: Q01DX009 (ip), vehicle: Klucel (hydroxypropylcellulose) (HPC) 96 % of control | dose: 25.0 mg/kg/injection, schedule: Q01DX009 (ip), vehicle: Klucel (hydroxypropylcellulose) (HPC) 92 % of control | [3] 87 % of control

CNC(=O)OCc1c(COC(=O)NC)c2n(c1C)CS(=O)C2 (configuration not stated)
inactive: dose: 25.0 mg/kg/injection, schedule: Q01DX005 (ip), vehicle: saline with Tween-80 113 % of control | [4] 113 % of control | [5] 121 % of control and 122 % of control | [6] 113 % of control and 115 % of control

O=C1C[CH]([Ge](=[O])[O][Ge](=[O])[CH]2CC(=O)NC(=O)N2)NC(=O)N1 (configuration not stated)
inactive: dose: 15.0 mg/kg/injection, schedule: Q01DX005 (ip), vehicle: water 97 % of control | dose: 30.0 mg/kg/injection, schedule: Q01DX005 (ip), vehicle: water 99 % of control | dose: 60.0 mg/kg/injection, schedule: Q01DX005 (ip), vehicle: water 111 % of control | dose: 120.0 mg/kg/injection, schedule: Q01DX005 (ip), vehicle: water 103 % of control and 118 % of control | dose: 240.0 mg/kg/injection, schedule: Q01DX005 (ip), vehicle: water 95 % of control

Cc1ccc(C2=C/C(=C/c3ccc(N(CCC#N)CCC#N)cc3)C(=O)O2)c(C)c1
inactive: [7] 95 % of control | [8] 95 % of control | [9] 87 % of control

CN1CCc2c3c(c4c(c21)CCN4C)CCc1ccccc1-3
inactive: [10] 104 % of control | [11] 101 % of control | [12] 96 % of control

CCOc1ccc(N2CC(=O)N3CCCCN3C(=O)C2)cc1
inactive: [10] 112 % of control | [11] 103 % of control | [12] 105 % of control

O=C1c2ccccc2C(=O)c2c1cc1c(c2[N+](=O)[O-])OCO1
inactive: dose: 30.0 mg/kg/injection, schedule: Q01DX005 (ip), vehicle: saline with Tween-80 99 % of control and 107 % of control | dose: 60.0 mg/kg/injection, schedule: Q01DX005 (ip), vehicle: saline with Tween-80 99 % of control and 112 % of control and 113 % of control | dose: 120.0 mg/kg/injection, schedule: Q01DX005 (ip), vehicle: saline with Tween-80 99 % of control and 118 % of control and 120 % of control | dose: 240.0 mg/kg/injection, schedule: Q01DX005 (ip), vehicle: saline with Tween-80 118 % of control and 96 % of control

Nc1c(Cl)sc2ccccc2c1=O
inactive: [4] 91 % of control | [5] 91 % of control | [6] 104 % of control

CS/C(N)=N\NCCC(=O)Nc1c(C)cccc1C
inactive: dose: 100.0 mg/kg/injection, schedule: Q04DX002 (ip), vehicle: saline with Tween-80 100 % of control | dose: 200.0 mg/kg/injection, schedule: Q04DX002 (ip), vehicle: saline with Tween-80 91 % of control | dose: 400.0 mg/kg/injection, schedule: Q04DX002 (ip), vehicle: saline with Tween-80 91 % of control

C[n+]1c2ccccc2cc2ccccc21
inactive: dose: 25.0 mg/kg/injection, schedule: Q04DX003 (ip), vehicle: saline with Tween-80 86 % of control

CCCC1(CC(=O)O)OCCc2c1[nH]c1ccccc21 (configuration not stated)
inactive: [3] 102 % of control | dose: 100.0 mg/kg/injection, schedule: Q01DX009 (ip), vehicle: Klucel (hydroxypropylcellulose) (HPC) 108 % of control

CC=C=CCN(C)Cc1ccccc1
inactive: dose: 6.25 mg/kg/injection, schedule: Q01DX009 (ip), vehicle: saline 107 % of control | dose: 12.5 mg/kg/injection, schedule: Q01DX009 (ip), vehicle: saline 94 % of control | dose: 25.0 mg/kg/injection, schedule: Q01DX009 (ip), vehicle: saline 109 % of control | dose: 50.0 mg/kg/injection, schedule: Q04DX003 (ip), vehicle: Klucel (hydroxypropylcellulose) (HPC) 108 % of control | dose: 100.0 mg/kg/injection, schedule: Q04DX003 (ip), vehicle: Klucel (hydroxypropylcellulose) (HPC) 88 % of control

COc1c(OCC(O)CN2CCOCC2)c2c(C)coc2c2ccoc12 (configuration not stated)
inactive: [1] 100 % of control | [2] 105 % of control

Nc1cc2ncccc2c2ccccc12
inactive: [13] 100 % of control and 98 % of control | [14] 109 % of control | [15] 106 % of control and 89 % of control

COc1cccc2c1C(=O)c1c(O)c3c(c(O)c1C2=O)CC(O)(C(C)=O)CC3OC1CC(NC2CCCCC2)C(O)C(C)O1 (configuration not stated)
inactive: dose: 6.25 mg/kg/injection, schedule: Q04DX003 (ip), vehicle: distilled water + Tween-80 100 % of control | dose: 12.5 mg/kg/injection, schedule: Q04DX003 (ip), vehicle: distilled water + Tween-80 104 % of control | dose: 25.0 mg/kg/injection, schedule: Q04DX003 (ip), vehicle: distilled water + Tween-80 102 % of control | dose: 50.0 mg/kg/injection, schedule: Q04DX003 (ip), vehicle: distilled water + Tween-80 102 % of control | dose: 100.0 mg/kg/injection, schedule: Q04DX003 (ip), vehicle: distilled water + Tween-80 104 % of control | dose: 200.0 mg/kg/injection, schedule: Q04DX003 (ip), vehicle: distilled water + Tween-80 108 % of control

CC1(C)COC(c2c(F)cccc2Cl)=N1
inactive: [4] 100 % of control | [5] 100 % of control | [6] 98 % of control

Nc1nc(N)nc(-c2ccccc2Cl)n1
inactive: [13] 117 % of control | [14] 93 % of control | [15] 117 % of control

O=C(NC1CCCCC1C1CCC(Cl)CC1)c1ccccc1 (configuration not stated)
inactive: [4] 89 % of control | [5] 87 % of control | [6] 87 % of control

ClCC(Br)CBr (configuration not stated)
inactive: dose: 37.5 mg/kg/injection, schedule: Q01DX009 (ip), vehicle: saline with Tween-80 104 % of control | dose: 37.5 mg/kg/injection, schedule: Q04DX003 (ip), vehicle: saline with Tween-80 100 % of control | dose: 50.0 mg/kg/injection, schedule: Q01DX009 (ip), vehicle: saline sonified 105 % of control | dose: 75.0 mg/kg/injection, schedule: Q04DX003 (ip), vehicle: saline with Tween-80 90 % of control | dose: 150.0 mg/kg/injection, schedule: Q01DX009 (ip), vehicle: saline with Tween-80 104 % of control | dose: 150.0 mg/kg/injection, schedule: Q04DX003 (ip), vehicle: saline with Tween-80 95 % of control

NC1=NS(=O)(=O)N=C(N)C1=NNc1ccc([N+](=O)[O-])cc1
inactive: [7] 108 % of control | [8] 92 % of control | [9] 96 % of control

C/C(Cl)=C/CN(C/C=C(/C)Cl)CCO
inactive: [4] 101 % of control | [5] 102 % of control

CCCCCCC(=O)/C=C/c1cccc(OCc2ccc(Cl)cc2)c1
inactive: dose: 50.0 mg/kg/injection, schedule: Q01DX009 (ip), vehicle: saline with Tween-80 101 % of control | dose: 100.0 mg/kg/injection, schedule: Q01DX009 (ip), vehicle: saline with Tween-80 93 % of control | dose: 200.0 mg/kg/injection, schedule: Q01DX009 (ip), vehicle: saline with Tween-80 101 % of control
